US20210346357A1 (priority 2020, published 2021)
Like-named read-outs stand apart in the source and are kept apart here.

How the values were obtained:
[1] = tested on: IL-13 induced pSTAT6 in lung tissue; assay: Murine model of IL-13 induced pSTAT6 induction in lung tissue; format: in vivo; settings: mouse lung, oral aspiration 1 mg/mL 50 μL, IL-13 challenge at 4 h; scale 0% to 100% inhibitory effect
Excerpt: Assay 3: Murine (Mouse) Model of IL-13 induced pSTAT6 Induction in Lung Tissue
IL-13 is an important cytokine underlying the pathophysiology of asthma (Kudlacz et al. Eur. J. Pharmacol, 2008, 582,154-161). IL-13 binds to cell surface receptors activating members of the Janus family of kinases (JAK) which then phosphorylate STAT6 and subsequently activates further transcription pathways. In the described model, a dose of IL-13 was delivered locally into the lungs of mice to induce the phosphorylation of STAT6 (pSTAT6) which is then measured as the endpoint.
Adult Balb/c mice from Harlan were used in the assay. […] Animals were placed in lateral recumbency post dose and monitored for full recovery from anesthesia before being returned to their home cage. Four hours later, animals were once again briefly anesthetized and challenged with either vehicle or IL-13 (0.03 μg total dose delivered, 50 μL total volume) via oral aspiration before being monitored for recovery from anesthesia and returned to their home cage. […] Plasma and lung levels of test compound were determined by LC-MS analysis against analytical standards constructed into a standard curve in the test matrix. A lung to plasma ratio was determined as the ratio of the lung concentration in ng/g to the plasma concentration in ng/mL at 5 hours. […]

[2] = tested on: TSLP-evoked TARC release in human peripheral blood mononuclear cells; assay: Inhibition of TSLP-evoked TARC release in human PBMC; format: cell-based; settings: PBMC from 3 to 5 donors, TSLP 10 ng/mL, 48 hours, read-out: pIC50 ± st. dev., inhibition of TSLP-evoked TARC release (converted)
[3] = target: Abl1 (Homo sapiens, UniProt P00519); assay: Biochemical ABL1 kinase assay (33P-ATP); settings: at 1 μM; ATP 10 μM
Sequence of Abl1 (P00519 whole entry): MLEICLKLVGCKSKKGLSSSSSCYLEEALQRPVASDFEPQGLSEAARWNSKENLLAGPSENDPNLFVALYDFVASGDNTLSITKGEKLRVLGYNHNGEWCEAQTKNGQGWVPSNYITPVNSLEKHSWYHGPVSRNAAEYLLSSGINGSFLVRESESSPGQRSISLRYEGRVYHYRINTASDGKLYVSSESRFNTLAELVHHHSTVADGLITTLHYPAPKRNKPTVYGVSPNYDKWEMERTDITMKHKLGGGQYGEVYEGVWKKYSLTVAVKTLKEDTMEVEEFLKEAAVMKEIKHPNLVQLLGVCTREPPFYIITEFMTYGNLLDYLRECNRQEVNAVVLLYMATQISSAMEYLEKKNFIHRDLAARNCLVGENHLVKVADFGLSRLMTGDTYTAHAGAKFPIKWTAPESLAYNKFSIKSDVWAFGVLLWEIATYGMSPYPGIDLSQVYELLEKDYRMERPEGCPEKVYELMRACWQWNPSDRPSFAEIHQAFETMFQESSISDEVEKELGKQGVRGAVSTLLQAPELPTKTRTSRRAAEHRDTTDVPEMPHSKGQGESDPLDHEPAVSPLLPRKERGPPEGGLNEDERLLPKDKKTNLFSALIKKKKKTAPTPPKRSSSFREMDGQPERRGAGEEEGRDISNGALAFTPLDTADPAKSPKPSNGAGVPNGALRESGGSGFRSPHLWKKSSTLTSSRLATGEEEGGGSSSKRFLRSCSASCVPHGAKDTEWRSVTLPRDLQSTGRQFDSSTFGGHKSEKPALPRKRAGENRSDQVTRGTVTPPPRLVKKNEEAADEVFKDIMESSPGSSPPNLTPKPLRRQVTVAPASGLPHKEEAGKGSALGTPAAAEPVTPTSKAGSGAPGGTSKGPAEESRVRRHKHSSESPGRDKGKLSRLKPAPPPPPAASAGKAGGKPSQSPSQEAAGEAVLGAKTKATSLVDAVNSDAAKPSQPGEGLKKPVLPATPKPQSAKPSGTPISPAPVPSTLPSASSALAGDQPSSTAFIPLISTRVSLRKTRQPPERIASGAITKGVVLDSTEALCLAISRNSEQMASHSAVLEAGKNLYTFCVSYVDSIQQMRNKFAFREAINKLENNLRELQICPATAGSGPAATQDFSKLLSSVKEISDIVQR

[4] = Phase 1 SAD/MAD study of inhaled compound 1 in healthy subjects; format: in vivo, human; settings: for AUC(0-t): read-out: AUC0-24
Method: This is a phase 1, 2-part, double-blind, randomized, placebo controlled, sponsor-open, SAD (Part A) and MAD (Part B). Subjects will participate in only 1 cohort in only 1 study part.
Part A (SAD): three (3) cohorts of 8 healthy subjects (6 active and 2 placebo). In each cohort, subjects received a single inhaled dose of compound 1 or placebo. […] Cardiodynamic monitoring via Holter monitors was conducted pre-dose and for at least 24 hours following dosing on Day 1 in each cohort, with rest periods for cardiodynamic electrocardiogram (ECG) extractions time matched to the PK sampling time points.
Part B (MAD): three (3) cohorts of 10 healthy subjects (8 active and 2 placebo). In each cohort, subjects received inhaled doses once daily (QD) for 7 days. […] Blood samples for PK assessment were also collected pre-dose on the morning of Days 3 through 6. Cardiodynamic monitoring via Holter monitors may be conducted pre-dose on Day 1 and pre-dose and for at least 24 hours following dosing on the morning of Day 7 in each cohort with rest periods for cardiodynamic ECG extractions time matched to the PK sampling time points.
Parts A and B: safety (i.e., physical examinations, vital signs, 12-lead safety ECGs, spirometry, clinical laboratory tests, and adverse events [AEs]) were assessed throughout the study; blood and urine samples were collected for safety assessments. All subjects who received at least one dose of study drug (including subjects who terminated the study early) returned to the CRU 7 (±2) days after the last study drug administration for follow-up procedures, and to determine if any AEs have occurred since the last study visit.
Part B: subjects received inhaled doses QD for 7 days using a nebulizer device.
Morning doses on Days 1 and 7 were administered under fasting conditions due to cardiodynamic monitoring. On all other times, doses were administered at least 30 minutes after completion of a meal or snack. Hour 0 was defined as the beginning of inhalation in each morning dose administration.
AUC0-24, AUC0-∞, Cmax and t1/2 are presented as arithmetic mean (standard deviation). Tmax is presented as median (minimum, maximum).

[5] = tested on: IL-13-induced STAT6 phosphorylation in the human bronchial epithelial cell line BEAS-2B; assay: IL-13-induced STAT6 phosphorylation in BEAS-2B cells; format: cell-based
[6] = Human plasma protein binding; format: in vitro ADME
[7] = healthy subjects, 1 mg to 10 mg
[8] = human, plasma, inhaled or intranasal, 1 mg, healthy subjects, inhaled 1 mg QD, Day 1, mean
[9] = human, plasma, inhaled or intranasal, 1 mg, healthy subjects, inhaled 1 mg QD, Day 7, mean
[10] = human, plasma, inhaled or intranasal, 1 mg, healthy subjects, single inhaled dose 1 mg, mean
[11] = human, plasma, inhaled or intranasal, 3 mg, healthy subjects, inhaled 3 mg QD, Day 1, mean
[12] = human, plasma, inhaled or intranasal, 3 mg, healthy subjects, inhaled 3 mg QD, Day 7, mean
[13] = human, plasma, inhaled or intranasal, 3 mg, healthy subjects, single inhaled dose 3 mg, mean
[14] = human, plasma, inhaled or intranasal, 10 mg, healthy subjects, inhaled 10 mg QD, Day 1, mean
[15] = human, plasma, inhaled or intranasal, 10 mg, healthy subjects, inhaled 10 mg QD, Day 7, mean
[16] = human, plasma, inhaled or intranasal, 10 mg, healthy subjects, single inhaled dose 10 mg, mean

CCc1cc(O)ccc1-c1ccc2c(-c3nc4c([nH]3)CN(C(C)C)[C@H](C(=O)N3CC(N(C)C)C3)C4)n[nH]c2c1 [Compound 1, (S)-(3-(dimethylamino)azetidin-1-yl)(2-(6-(2-ethyl-4-hydroxyphenyl)-1H-indazol-3-yl)-5-isopropyl-4,5,6,7-tetrahydro-3H-imidazo[4,5-c]pyridin-6-yl)methanone]
pSTAT6 inhibition at 5 hours [1]: 75
IC50 [2]: 63.1 nM
inhibition at 1 µM [3]: 90%
changes in laboratory parameters, vital signs, or ECGs [4, 7]: no clinically relevant changes
severity of adverse events [4, 7]: mild or moderate
Tmax ([4]; healthy subjects, inhaled 1 mg QD, Day 1, median): 1.0 h
Tmax ([4]; healthy subjects, inhaled 1 mg QD, Day 7, median): 1.0 h
Tmax ([4]; healthy subjects, inhaled 3 mg QD, Day 1, median): 1.0 h
Tmax ([4]; healthy subjects, inhaled 3 mg QD, Day 7, median): 1.0 h
Tmax ([4]; healthy subjects, inhaled 10 mg QD, Day 1, median): 1.0 h
Tmax ([4]; healthy subjects, inhaled 10 mg QD, Day 7, median): 1.0 h
tolerability ([4]; healthy subjects, single daily doses 1 mg to 10 mg for 7 days): well tolerated
t1/2 ([4]; healthy subjects, single inhaled dose 3 mg, mean): 24.73 h
Cmax [4, 8]: 5.33 ng/mL
AUC(0-t) [4, 8]: 18.4 ng·h/mL
Cmax [4, 9]: 5.7 ng/mL
AUC(0-t) [4, 9]: 21.6 ng·h/mL
Cmax [4, 10]: 5.72 ng/mL
AUC(0-t) [4, 10]: 18.5 ng·h/mL
half-life ([4]; human, plasma, inhaled or intranasal, 1 mg, healthy subjects, single inhaled dose 1 mg, mean, read-out: t1/2 (converted)): 19.3 h
Cmax [4, 11]: 17.8 ng/mL
AUC(0-t) [4, 11]: 48.1 ng·h/mL
Cmax [4, 12]: 18.2 ng/mL
AUC(0-t) [4, 12]: 52.3 ng·h/mL
Cmax [4, 13]: 14.1 ng/mL
AUC(0-t) [4, 13]: 43.3 ng·h/mL
half-life ([4]; human, plasma, inhaled or intranasal, 3 mg, healthy subjects, single inhaled dose 3 mg, mean, read-out: t1/2 (converted)): 24.7 h
Cmax [4, 14]: 54.6 ng/mL
AUC(0-t) [4, 14]: 191 ng·h/mL
Cmax [4, 15]: 53.6 ng/mL
AUC(0-t) [4, 15]: 204 ng·h/mL
Cmax [4, 16]: 50.9 ng/mL
AUC(0-t) [4, 16]: 153 ng·h/mL
half-life ([4]; human, plasma, inhaled or intranasal, 10 mg, healthy subjects, single inhaled dose 10 mg, mean, read-out: t1/2 (converted)): 23.1 h
Tmax ([4]; human, plasma, inhaled or intranasal, healthy subjects, following single and multiple inhaled doses, read-out: Tmax): ~1 h
half-life ([4]; human, plasma, inhaled or intranasal, healthy subjects, following single and multiple inhaled doses, read-out: terminal elimination half-life (converted)): ~24 h
AUC(0-inf) ([4]; human, plasma, inhaled or intranasal, healthy subjects, single inhaled dose 1 mg, mean): 20.7 ng·h/mL
Tmax ([4]; human, plasma, inhaled or intranasal, healthy subjects, single inhaled dose 1 mg, median, read-out: Tmax): 1 h
AUC(0-inf) ([4]; human, plasma, inhaled or intranasal, healthy subjects, single inhaled dose 3 mg, mean): 48.6 ng·h/mL
Tmax ([4]; human, plasma, inhaled or intranasal, healthy subjects, single inhaled dose 3 mg, median, read-out: Tmax): 1 h
AUC(0-inf) ([4]; human, plasma, inhaled or intranasal, healthy subjects, single inhaled dose 10 mg, mean): 169 ng·h/mL
Tmax ([4]; human, plasma, inhaled or intranasal, healthy subjects, single inhaled dose 10 mg, median, read-out: Tmax): 1 h
neutrophil and hemoglobin reductions, lipid changes ([4]; inhaled administration): not observed
IC50 ([5]; JAK IC50 divided by the fraction unbound, read-out: binding-corrected JAK IC50): 0.362 µg/mL
IC50 ([5]; obtained from pIC50 of 7.9, based on a MW of 545.7, read-out: JAK IC50): 0.0069 µg/mL
IC50 ([5]; read-out: pIC50 for IL-13-induced STAT6 phosphorylation (converted)): 12.6 nM
fraction unbound [6]: 0.019
human plasma protein binding [6]: 98.1%
